For one compound, Maximum solubility and Stability results are on record in patent US10772807B2, “Lipid microcapsules preferably comprising a retinoid, and composition containing same, method for the production thereof, and use of same in dermatology” (GALDERMA RESEARCH & DEVELOPMENT, priority 2013, dated 2020).

Series [1] can be described thus: Maximum solubility of Trifarotene in various oily phases. It is filed as physicochemical.
A short description of series [2]: Chemical stability of Trifarotene in oily phases (HPLC-UV). It is filed as physicochemical. The protocol:
The stability of the active agent was evaluated by liquid chromatography coupled to a UV detector (HPLC-UV).

The mark [3] stands for this setting: in Caprylic/capric acid triglycerides (Miglyol ® 812N).
Setting [4] is: in Diisopropyl adipate (Schercemol Dia Ester).
[5] abbreviates: in Macrogol oleate (Labrafil ® M1944CS).
Where [6] appears, read: in Octyldodecanol (Eutanol ® G).
Where [7] appears, read: in PPG-15 stearyl ether (Arlamol PS11E-LQ).
The mark [8] stands for this setting: in Propylene glycol dicaprylate/dicaprate (Myritol ® PC).
Where [9] appears, read: in Propylene glycol monolaurate (Lauroglycol ® FCC).

For the compound `CC(C)(C)c1cc(-c2cc(-c3ccc(C(=O)O)cc3)ccc2OCCO)ccc1N1CCCC1` [Trifarotene, 3″-tert-butyl-4′-(2-hydroxyethoxy)-4″-pyrrolidin-1-yl-[1,1′;3′,1″]-terphenyl-4-carboxylic acid], the Maximum solubility was 0.026 % w/w in series [1] (in Alkyl (C12-15) benzoate (Crodamol AB)); 0.019 % w/w in series [1] (setting [3]); 0.297 % w/w in series [1] (setting [4]); 0.156 % w/w in series [1] (setting [5]); 0.0001 % w/w in series [1] (in Mineral oil); 0.137 % w/w in series [1] (setting [6]). Moreover, the Maximum solubility in series [1] (setting [7]) is reported as 0.292 % w/w; in series [1] (setting [8]), 0.069 % w/w; in series [1] (in Propylene glycol monocaprylate (Capryol ® 90)), 0.802 % w/w; in series [1] (setting [9]) it was 0.296 % w/w; in series [1] (in Sweet almond oil) it was 0.011 % w/w. For the same compound, the Stability in series [2] (setting [3]) is 6 months AT/40 °C; in series [2] (setting [4]) it was 6 months AT/40 °C; in series [2] (setting [5]), 6 months AT/40 °C; in series [2] (setting [6]), “Unstable”; in series [2] (setting [7]), 6 months AT/40 °C; in series [2] (setting [8]) it was “Unstable”. For the same compound, the Stability in series [2] (in Propylene glycol monocaprylate (Capryol ® 90), AT = ambient temperature) came to 6 months AT/40 °C; in series [2] (setting [9]), 6 months AT/40 °C; in series [2] (in Sweet almond oil) it was 6 months AT/40 °C.
